Reference: ChEMBL document CHEMBL1159014, “Isolation of potential cancer chemopreventive agents from Eriodictyon californicum” (1992)

Legend:
[1] = Chemopreventive activity in Syrian hamster embryo cells assessed as inhibition of metabolism of [3H]benzo(a)pyrene to water-soluble metabolites after 24 hrs at 5 ug/ml relative to control; assay type: functional; settings: Mesocricetus auratus, read-out: INH
[2] = Chemopreventive activity in Syrian hamster embryo cells assessed as inhibition of metabolism of [3H]benzo(a)pyrene to water-soluble metabolites after 24 hrs at 10 ug/ml relative to control; assay type: functional; settings: Mesocricetus auratus, read-out: INH
[3] = Chemopreventive activity in Syrian hamster embryo cells assessed as inhibition of metabolism of [3H]benzo(a)pyrene to water-soluble metabolites after 24 hrs at 20 ug/ml relative to control; assay type: functional; settings: Mesocricetus auratus, read-out: INH
[4] = Chemopreventive activity in Syrian hamster embryo cells assessed as pmol of [3H]benzo(a)pyrene binding per mg of DNA at 10 ug/ml by [35S]phosphorothote post-labeling-HPLC; assay type: functional, Mesocricetus auratus
Mesocricetus auratus = species: Mesocricetus auratus; assay: Chemopreventive activity in Syrian hamster embryo cells assessed as inhibition of [3H]benzo(a)pyrene-DNA binding at 10 ug/ml by [35S]phosphorothote post-labeling-HPLC; assay type: functional
[5] = Chemopreventive activity in Syrian hamster embryo cells assessed as pmol of (+)-anti-benzo(a)pyrene-7,8-diol-9,10-epoxide -dGuo adduct per mg of DNA at 10 ug/ml by [35S]phosphorothote post-labeling-HPLC; assay type: functional, Mesocricetus auratus

Row | Structure (SMILES) | inhibition at 5 µg/mL [1] [%] | inhibition at 10 µg/mL [2] [%] | inhibition at 20 µg/mL [3] [%] | Activity [4] [pmol] | inhibition (Mesocricetus auratus) [%] | Activity [5] [pmol]
1 | COc1cc(C2CC(=O)c3c(cc(O)c(OC)c3O)O2)ccc1O (stereo unspecified) | 9 | 19 | 32 | – | – | –
2 | COc1cc([C@@H]2CC(=O)c3c(O)cc(O)cc3O2)ccc1OC(=O)C(C)C | – | – | 52 | – | – | –
3 | COc1cc2c(c(O)c1OC)C(=O)CC(c1ccc(O)cc1)O2 (stereo unspecified) | – | – | 36 | – | – | –
4 | O=c1cc(-c2ccccc2)oc2cc(O)cc(O)c12 [CHRYSIN] | 14 | 44 | 86 | – | – | –
5 | COc1cc(-c2cc(=O)c3c(O)cc(O)cc3o2)ccc1O [CHRYSOERIOL] | 60 | 85 | 96 | 44.9 | 32 | 22.5
6 | COc1cc2oc(-c3ccc(O)cc3)cc(=O)c2c(O)c1OC [CIRSIMARITIN] | 69 | 85 | 92 | 19.4 | 71 | 11.5
7 | O=C1C[C@@H](c2ccc(O)c(O)c2)Oc2cc(O)cc(O)c21 [ERIODICTYOL] | 16 | 40 | 55 | – | – | –
8 | COc1c(O)cc2oc(-c3ccc(O)cc3)cc(=O)c2c1O [HISPIDULIN] | 18 | 75 | 92 | – | – | –
9 | COc1cc([C@@H]2CC(=O)c3c(O)cc(O)cc3O2)ccc1O [HOMOERIODICTYOL] | – | – | 36 | – | – | –
10 | O=C1C[C@@H](c2ccccc2)Oc2cc(O)cc(O)c21 [PINOCEMBRIN] | 8 | 29 | 66 | – | – | –
11 | COc1cc(O)c2c(c1)O[C@H](c1ccc(O)cc1)CC2=O [SAKURANETIN] | – | – | 52 | – | – | –
